Measured values published in patent US20020018788A1, “PREPARATION PROTECTING SKIN FROM MECHANICAL IRRITATION” (priority 1996, published 2002).

Columns and labels:
[1] = system: mechanical skin irritation; test: Thermal conductivity of the skin (microcirculation), skin cut by scraping, group 1; format: in vivo, healthy female volunteers; conditions: for % Variation, treated area/untreated area 1 (microcirculation): 4% (weight/volume) in distilled water, mean ± standard error; for % Variation, treated area/untreated area 1 (microcirculation) / Mean values of thermal conductivity (K), treated area: n=6
Description: (§1) The effect of trimethylglycine on the skin was studied by measuring the thermal conductivity of the skin by a method described by A. Dittmar in Cutaneous investigation in health and disease. Non-invasive methods and instrumentation, ed. J. L. Lévêque, Marcel Dekker Inc., New York-Basel, 1989. The method correlates directly with microcirculation on the skin. Thermal conductivity (K) is measured from the skin with a specific Hematron® thermal sensor and transformed into an electric signal, which is recorded by a recorder. In thermal conductivity (ΔK), a significant level of variation is 0.1 mW/cm.°C.
(§2) The test was conducted on two test groups, each one of which comprised six healthy female volunteers. In the first test group (group 1), four cutaneous test areas were defined on the arm of each subject, and microcirculation was first measured for 30 minutes before the preparation was added. The skin was then cut by scraping in all the four areas, and onto the skin was pressed a filter paper into which a solution had been absorbed that contained 14 μl/cm^2 of 4% (weight/volume) trimethylglycine in distilled water, or only distilled water (placebo). Subsequently, microcirculation was measured for 60 minutes at the erythematous, damaged points on the skin, treated with the solution.
(§3) The thermal conductivity values measured on each volunteer subject are shown in table 1 (group 1) and table 2 (group 2). Tables 1 and 2 show the mean values (n=6) of thermal conductivity (K expressed as mW/cm .°C.) in the treated area, placebo area, and untreated areas at different instances of measuring. In tables 1 and 2, the treated area means an area treated with a preparation containing trimethylglycine; untreated area 1 is an untreated area that is symmetric with the area treated with the preparation containing trimethylglycine; the placebo area means an area treated with a placebo; and untreated area 2 is an untreated area that is symmetric with the area treated with the placebo.
(§4) Per /cent (%) variations between the treated area and untreated area 1, and the placebo area and untreated area 2 were calculated for each volunteer subject 30 and 60 min after application of the product. The variations were calculated using the formula [formula]

thermal skin irritation = test: Thermal conductivity of the skin (microcirculation), infrared irradiation, group 2; format: in vivo, healthy female volunteers
Description: as §1
In the second test group (group 2), the subjects' microcirculation was measured at the erythema in the same way as above, but the irritation was here caused by 30-minute infrared irradiation (IR Philips 250 S lamps, spectrum 700 to 2500 nm, power 250 W, light energy 70 mW/cm^2, irradiation area 14 cm^2) in the four cutaneous areas defined on the upper back.
as §3, §4

[2] = pure form; in water and in lower alcohols, such as methanol and ethanol; cited from earlier work
skin = test: Tolerance of the preparation by the subjects in both tests; format: in vivo, healthy female volunteers; conditions: topical 4% (weight/volume) preparation
Description: as §2, with “solution. In the second test group (group 2), the subjects' microcirculation was measured at the erythema in the same way as above, but the irritation was here caused by 30-minute infrared irradiation (IR Philips 250 S lamps, spectrum 700 to 2500 nm, power 250 W, light energy 70 mW/cm^2, irradiation area 14 cm^2) in the four cutaneous areas defined on the upper back.” for “solution.”

C[N+](C)(C)CC(=O)[O-] [trimethylglycine]
% Variation, treated area/untreated area 1 (microcirculation) ([1]; group 1, t30 min): -8.9±8.6% | % Variation, treated area/untreated area 1 (microcirculation) ([1]; group 1, t60 min): -15.0±8.8% | Effect against mechanical erythema as compared with the placebo ([1]; group 1, 4% (weight/volume) in water, effect detected 60 min after the application): effective against mechanical erythema | Mean values of thermal conductivity (K), treated area ([1]; t0, before application of product, arm skin): 3.82 ± 0.59 mW/cm · ° C. | Mean values of thermal conductivity (K), treated area ([1]; t30, 30 min after application of 4% (weight/volume) trimethylglycine in distilled water, 14 μl/cm^2, skin cut by scraping): 3.66 ± 0.69 mW/cm · ° C. | Mean values of thermal conductivity (K), treated area ([1]; t60, 60 min after application of 4% (weight/volume) trimethylglycine in distilled water, 14 μl/cm^2, skin cut by scraping): 3.42 ± 0.41 mW/cm · ° C. | % Variation, treated area/untreated area 1 (microcirculation) (thermal skin irritation; group 2, t30 min, 4% (weight/volume) in distilled water, mean ± standard error, n=6): 23.5±11.8% | Effect on thermal erythema (thermal skin irritation; group 2, preparation containing trimethylglycine): no effect on thermal erythema | Mean values of thermal conductivity (K), treated area (thermal skin irritation; t0, before application of product, upper back, n=6): 3.13 ± 0.30 mW/cm · ° C. | Mean values of thermal conductivity (K), treated area (thermal skin irritation; t30, 30 min after application of 4% (weight/volume) trimethylglycine in distilled water, 30-minute infrared irradiation, n=6): 3.85 ± 0.31 mW/cm · ° C. | Mean values of thermal conductivity (K), treated area (thermal skin irritation; t60, 60 min after application of 4% (weight/volume) trimethylglycine in distilled water, 30-minute infrared irradiation, n=6): 3.60 ± 0.38 mW/cm · ° C. | Solubility [2]: readily soluble | Tolerance / sensitivity of the subjects (skin): tolerated the trimethylglycine preparation well
